According to patent publication US20220242846A1, “ISOINDOLINONE COMPOUNDS” (Monte Rosa Therapeutics AG, priority 2019, published 2022):

biological target: T1, Full length wild-type cereblon CRBN (Homo sapiens, UniProt Q96SW2); experiment: Fluorescence polarization (FP) assay indicating cereblon binding; conditions: CRBN 80.0 nM, fluorescent probe 5 nM, FP measured after 12 hours; read-out: rFP IC50
T1 construct: Full length wild-type cereblon CRBN (80.0 nM, 10 μL) was incubated in assay buffer
Method in brief: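 Full-length wild-type human CRBN (80.0 nM) preincubated 30 min at room temperature with compound (12-point curve, 300-0.937 or 3000-9.3 nM) in HEPES pH 8.0, NaCl, TCEP, Tween 20. Thalidomide-based Cy5-type probe then added at 5 nM final; FP read after 12 h (ex 590, em 675 nm), normalized to DMSO, IC50 derived.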

T1 sequence (Q96SW2 whole entry): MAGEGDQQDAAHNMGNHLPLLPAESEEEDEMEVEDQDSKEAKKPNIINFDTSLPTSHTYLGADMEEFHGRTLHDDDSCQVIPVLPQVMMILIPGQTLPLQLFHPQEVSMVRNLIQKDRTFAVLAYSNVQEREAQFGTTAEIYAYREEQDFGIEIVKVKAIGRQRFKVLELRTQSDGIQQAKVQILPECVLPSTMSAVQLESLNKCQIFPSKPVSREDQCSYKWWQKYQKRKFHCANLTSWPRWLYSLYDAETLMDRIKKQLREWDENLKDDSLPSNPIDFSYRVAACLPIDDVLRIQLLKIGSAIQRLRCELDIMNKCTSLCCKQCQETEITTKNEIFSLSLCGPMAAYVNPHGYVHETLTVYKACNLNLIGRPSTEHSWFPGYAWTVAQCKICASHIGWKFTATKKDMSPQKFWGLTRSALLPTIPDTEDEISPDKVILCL

Structure (SMILES)	IC50
CCNC(=O)NCc1ccc2c(c1)C(=O)N(C1CCC(=O)NC1=O)C2 (stereo not drawn) [Compound 15]	902 nM
O=C1CCC(N2Cc3ccc(CNC(=O)Nc4ccc(-c5ccccc5)cc4)cc3C2=O)C(=O)N1 (stereo not drawn) [Compound 71]	333 nM
Cc1cc(C)cc(NC(=O)NCc2ccc3c(c2)C(=O)N(C2CCC(=O)NC2=O)C3)c1 (stereo not drawn) [Compound 20]	550 nM
O=C1CCC(N2Cc3ccc(CNC(=O)Nc4ccccc4)cc3C2=O)C(=O)N1 (stereo not drawn) [Compound 1]	1040 nM
COc1ccc(NC(=O)NCc2ccc3c(c2)C(=O)N(C2CCC(=O)NC2=O)C3)cc1 (stereo not drawn) [Compound 5]	339 nM
CC(C)NC(=O)NCc1ccc2c(c1)C(=O)N(C1CCC(=O)NC1=O)C2 (stereo not drawn) [Compound 12]	960 nM
O=C1CCC(N2Cc3ccc(CNC(=O)Nc4cc(Cl)cc(Cl)c4)cc3C2=O)C(=O)N1 (stereo not drawn) [Compound 38]	589 nM
O=C1CCC(N2Cc3ccc(CNC(=O)NC4CCCCC4)cc3C2=O)C(=O)N1 (stereo not drawn) [Compound 29]	1140 nM
CCc1ccccc1NC(=O)NCc1ccc2c(c1)C(=O)N(C1CCC(=O)NC1=O)C2 (stereo not drawn) [Compound 36]	546 nM

test system: Human mammary epithelial cells (HMEC) engineered to express EGFP alone (non myc); experiment: 3D spheroid assay, non myc-HMEC (CellTiterGlo3D viability); assay type: cell-based; conditions: 120 h, 3D spheroids, 5 days with compound, read-out: Code: EC50 value in the non myc-HMEC assay
Method: (§1) 3D Spheroid Experiments—HMEC
(§2) Human mammary epithelial cells (HMEC) were engineered to express either c-myc tagged with EGFP or EGFP alone (non myc) (analogous but distinct from Kessler J D et al, Science. 2012 Jan. 20; 335(6066):348-53. doi: 10.1126/science.1212728; Hsu T Y et al, Nature. 2015 Sep. 17; 525(7569):384-8. doi: 10.1038/nature14985). The engineered cells were seeded at 1000 (myc) or 4000 (non myc) cells/well in a 384 ultra-low attachment plate in a total volume of 40 µL, HMEC cell culture media (DMEM/F12+10% HI-FBS+15 mM HEPES+0.5 ug/ml Hydrocortisone+10 ug/ml Insulin+20 ng/ml EGF). Plates were spun at 1200 rpm for 5 minutes at room temperature to ensure that cells have gathered in the middle of the well and incubated at 37° C. for 48 hrs before firing with compounds. On Day 2 (48 h post seeding) cells were imaged (brightfield and EGFP fluorescence) using the Celigo imaging cytometer prior to firing compounds. For primary screens, compounds were added at three concentrations (1.25, 10 and 30 uM) in a volume of 120 nL using the ECHO acoustic dispenser and spun at 2000 rpm for 2 minutes at room temperature before incubating at 37° C. for 5 days. […] On Day 7, prior to measuring cell viability using CellTiterGlo3D, cells were imaged (brightfield and EGFP fluorescence) on the Celigo imaging cytometer. The CellTiterGlo3D reagent is added at 30uL/well and incubated at room temperature for 30mins After 30mins of incubation, luminescence readings were recorded using the Perkin Elmer EnVision reader.

Structure (SMILES)	EC50
CCNC(=O)NCc1ccc2c(c1)C(=O)N(C1CCC(=O)NC1=O)C2 (stereo not drawn) [Compound 15]	> 10000 nM
O=C1CCC(N2Cc3ccc(CNC(=O)Nc4ccc(-c5ccccc5)cc4)cc3C2=O)C(=O)N1 (stereo not drawn) [Compound 71]	> 10000 nM
Cc1cc(C)cc(NC(=O)NCc2ccc3c(c2)C(=O)N(C2CCC(=O)NC2=O)C3)c1 (stereo not drawn) [Compound 20]	> 10000 nM
O=C1CCC(N2Cc3ccc(CNC(=O)Nc4ccccc4)cc3C2=O)C(=O)N1 (stereo not drawn) [Compound 1]	> 10000 nM
COc1ccc(NC(=O)NCc2ccc3c(c2)C(=O)N(C2CCC(=O)NC2=O)C3)cc1 (stereo not drawn) [Compound 5]	> 10000 nM
CC(C)NC(=O)NCc1ccc2c(c1)C(=O)N(C1CCC(=O)NC1=O)C2 (stereo not drawn) [Compound 12]	> 10000 nM
O=C1CCC(N2Cc3ccc(CNC(=O)Nc4cc(Cl)cc(Cl)c4)cc3C2=O)C(=O)N1 (stereo not drawn) [Compound 38]	> 10000 nM
O=C1CCC(N2Cc3ccc(CNC(=O)NC4CCCCC4)cc3C2=O)C(=O)N1 (stereo not drawn) [Compound 29]	> 10000 nM
CCc1ccccc1NC(=O)NCc1ccc2c(c1)C(=O)N(C1CCC(=O)NC1=O)C2 (stereo not drawn) [Compound 36]	> 10000 nM

biological target: GSPT1 (Homo sapiens, UniProt P15170+Q96SW2); experiment: Immunofluorescence assay for GSPT1 degradation in CAL-51 cells; assay type: cell-based; set-up: CAL-51 cells were purchased from DSMZ (cat. Number ACC302); endogenous in cells; host or cells: CAL-51 (DSMZ ACC302); conditions: compound treatment 6 hours, read-out: Code: activity for GSPT1 degradation (DC50)
Method in brief: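 CAL-51 cells on fibronectin-coated plates treated 6 h with compound (30 μM to 0.1 nM); fixed, stained with anti-GSPT1/Alexa-488, phalloidin and DAPI, imaged by high-content microscopy. Mean GSPT1 intensity per cell normalized to controls; DC50 by non-linear regression.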

Chain of GSPT1 (P15170 whole entry): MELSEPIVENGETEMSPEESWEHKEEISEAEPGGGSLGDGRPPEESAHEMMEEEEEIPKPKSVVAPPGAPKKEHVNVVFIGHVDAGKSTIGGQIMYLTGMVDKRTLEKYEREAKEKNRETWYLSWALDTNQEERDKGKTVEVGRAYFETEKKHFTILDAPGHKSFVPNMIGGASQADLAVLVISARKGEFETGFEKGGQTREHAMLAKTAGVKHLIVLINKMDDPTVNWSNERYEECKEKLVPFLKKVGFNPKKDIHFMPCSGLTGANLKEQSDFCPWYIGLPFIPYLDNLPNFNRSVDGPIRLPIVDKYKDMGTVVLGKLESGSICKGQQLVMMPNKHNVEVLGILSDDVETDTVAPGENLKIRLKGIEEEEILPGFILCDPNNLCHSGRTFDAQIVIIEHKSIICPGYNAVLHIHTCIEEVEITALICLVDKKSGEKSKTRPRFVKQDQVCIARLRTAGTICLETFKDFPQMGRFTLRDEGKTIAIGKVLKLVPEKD
Chain of GSPT1 (Q96SW2 whole entry): as the sequence (Q96SW2 whole entry) above
Chain of GSPT1 (Q16531 2-1140 partner limits assumed): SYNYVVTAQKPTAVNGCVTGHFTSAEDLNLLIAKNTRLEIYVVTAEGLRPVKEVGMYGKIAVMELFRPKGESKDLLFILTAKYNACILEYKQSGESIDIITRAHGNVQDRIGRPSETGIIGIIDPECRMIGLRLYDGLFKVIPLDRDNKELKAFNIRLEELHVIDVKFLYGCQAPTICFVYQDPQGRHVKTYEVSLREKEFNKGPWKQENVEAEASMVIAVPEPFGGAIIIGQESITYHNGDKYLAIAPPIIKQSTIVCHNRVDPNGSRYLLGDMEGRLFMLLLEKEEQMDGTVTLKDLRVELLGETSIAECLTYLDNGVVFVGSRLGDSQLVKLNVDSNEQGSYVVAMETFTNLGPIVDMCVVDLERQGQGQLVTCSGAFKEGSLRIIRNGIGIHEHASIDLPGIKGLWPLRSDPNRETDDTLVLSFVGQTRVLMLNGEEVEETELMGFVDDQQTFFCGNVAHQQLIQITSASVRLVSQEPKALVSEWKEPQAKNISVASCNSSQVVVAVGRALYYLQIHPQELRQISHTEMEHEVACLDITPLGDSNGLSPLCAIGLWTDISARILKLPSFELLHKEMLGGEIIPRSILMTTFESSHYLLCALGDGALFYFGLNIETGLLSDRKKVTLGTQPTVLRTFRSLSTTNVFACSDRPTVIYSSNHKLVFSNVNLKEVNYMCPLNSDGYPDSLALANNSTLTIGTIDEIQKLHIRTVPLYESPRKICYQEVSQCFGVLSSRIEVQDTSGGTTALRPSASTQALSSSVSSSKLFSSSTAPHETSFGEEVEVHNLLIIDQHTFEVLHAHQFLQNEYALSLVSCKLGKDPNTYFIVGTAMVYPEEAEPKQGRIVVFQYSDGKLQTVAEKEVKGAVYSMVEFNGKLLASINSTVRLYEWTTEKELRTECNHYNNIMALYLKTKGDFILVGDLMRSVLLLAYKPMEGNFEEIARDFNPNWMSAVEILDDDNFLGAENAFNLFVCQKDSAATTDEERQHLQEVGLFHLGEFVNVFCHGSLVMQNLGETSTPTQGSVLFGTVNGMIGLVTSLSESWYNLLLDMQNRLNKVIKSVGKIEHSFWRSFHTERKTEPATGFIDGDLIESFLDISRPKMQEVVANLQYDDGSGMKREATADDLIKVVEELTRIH

Structure (SMILES)	DC50
CCNC(=O)NCc1ccc2c(c1)C(=O)N(C1CCC(=O)NC1=O)C2 (stereo not drawn) [Compound 15]	> 300 nM
O=C1CCC(N2Cc3ccc(CNC(=O)Nc4ccc(-c5ccccc5)cc4)cc3C2=O)C(=O)N1 (stereo not drawn) [Compound 71]	≤ 100 nM
Cc1cc(C)cc(NC(=O)NCc2ccc3c(c2)C(=O)N(C2CCC(=O)NC2=O)C3)c1 (stereo not drawn) [Compound 20]	≤ 100 nM
O=C1CCC(N2Cc3ccc(CNC(=O)Nc4ccccc4)cc3C2=O)C(=O)N1 (stereo not drawn) [Compound 1]	> 300 nM
COc1ccc(NC(=O)NCc2ccc3c(c2)C(=O)N(C2CCC(=O)NC2=O)C3)cc1 (stereo not drawn) [Compound 5]	> 300 nM
CC(C)NC(=O)NCc1ccc2c(c1)C(=O)N(C1CCC(=O)NC1=O)C2 (stereo not drawn) [Compound 12]	> 300 nM
O=C1CCC(N2Cc3ccc(CNC(=O)Nc4cc(Cl)cc(Cl)c4)cc3C2=O)C(=O)N1 (stereo not drawn) [Compound 38]	100 to 300 nM
O=C1CCC(N2Cc3ccc(CNC(=O)NC4CCCCC4)cc3C2=O)C(=O)N1 (stereo not drawn) [Compound 29]	> 300 nM
CCc1ccccc1NC(=O)NCc1ccc2c(c1)C(=O)N(C1CCC(=O)NC1=O)C2 (stereo not drawn) [Compound 36]	> 300 nM

test system: Human mammary epithelial cells (HMEC) engineered to express c-myc tagged with EGFP; experiment: 3D spheroid assay, myc-HMEC (CellTiterGlo3D viability); assay type: cell-based; conditions: Homo sapiens, HMEC, 120 h, 3D spheroids, 5 days with compound, read-out: Code: EC50 value in the myc-HMEC assay
Method: as §1, §2

Structure (SMILES)	EC50
CCNC(=O)NCc1ccc2c(c1)C(=O)N(C1CCC(=O)NC1=O)C2 (stereo not drawn) [Compound 15]	> 2000 nM
O=C1CCC(N2Cc3ccc(CNC(=O)Nc4ccc(-c5ccccc5)cc4)cc3C2=O)C(=O)N1 (stereo not drawn) [Compound 71]	≤ 400 nM
Cc1cc(C)cc(NC(=O)NCc2ccc3c(c2)C(=O)N(C2CCC(=O)NC2=O)C3)c1 (stereo not drawn) [Compound 20]	400 to 2000 nM
O=C1CCC(N2Cc3ccc(CNC(=O)Nc4ccccc4)cc3C2=O)C(=O)N1 (stereo not drawn) [Compound 1]	> 2000 nM
COc1ccc(NC(=O)NCc2ccc3c(c2)C(=O)N(C2CCC(=O)NC2=O)C3)cc1 (stereo not drawn) [Compound 5]	> 2000 nM
CC(C)NC(=O)NCc1ccc2c(c1)C(=O)N(C1CCC(=O)NC1=O)C2 (stereo not drawn) [Compound 12]	> 2000 nM
O=C1CCC(N2Cc3ccc(CNC(=O)Nc4cc(Cl)cc(Cl)c4)cc3C2=O)C(=O)N1 (stereo not drawn) [Compound 38]	≤ 400 nM
O=C1CCC(N2Cc3ccc(CNC(=O)NC4CCCCC4)cc3C2=O)C(=O)N1 (stereo not drawn) [Compound 29]	> 2000 nM
CCc1ccccc1NC(=O)NCc1ccc2c(c1)C(=O)N(C1CCC(=O)NC1=O)C2 (stereo not drawn) [Compound 36]	> 2000 nM

same assay, conditions: myc-HMEC 3D spheroids (compounds with code D and E), 5 days, read-out: EC50

Structure (SMILES)	EC50
O=C1CCC(N2Cc3ccc(CNC(=O)Nc4ccc(-c5ccccc5)cc4)cc3C2=O)C(=O)N1 (stereo not drawn) [Compound 71]	39 nM
Cc1cc(C)cc(NC(=O)NCc2ccc3c(c2)C(=O)N(C2CCC(=O)NC2=O)C3)c1 (stereo not drawn) [Compound 20]	555 nM
O=C1CCC(N2Cc3ccc(CNC(=O)Nc4cc(Cl)cc(Cl)c4)cc3C2=O)C(=O)N1 (stereo not drawn) [Compound 38]	161 nM
